This note sets out measurements from patent EP4699605A1, “USE OF NOVEL COMPOUND FOR TREATING INTRACTABLE DISEASES” (YJ Cerapeutics Inc., priority 2023, dated 2024).

Bounds are passed on as bounds.

The subject of assay [1] is nerve injury animal models (SCI, LSS, SNI). The assay can be described thus: Mechanical allodynia (von-Frey filaments, 50% paw withdrawal threshold) in nerve injury animal models. It is filed as in vivo, Sprague-Dawley rats. As for the experimental part: To be used as a central nerve injury animal model, a traumatic spinal cord injury (SCI) model was prepared (FIG. 1A). Specifically, 230 to 250 g of male adult Sprague-Dawley rats were anesthetized by intraperitoneal injection of chloral hydrate (500 mg/kg), and then the back and neck regions were shaved, and the spinal cord under the back and neck regions was exposed without damaging the dura mater, and a laminectomy was performed at T9 to T10 levels. To stabilize the spine, the spinous processes of T8 and T11 were fixed, and the spine was damaged by free-falling a 10 g weight from a height of 25 mm using an NYU impactor onto the back surface of the exposed spinal cord and then the rats were left in a temperature and humidity-controlled chamber overnight while covering the muscles and skin. After surgery, the rats were subcutaneously injected with a supplement solution (5 ml, lactated ringer) and injected with antibiotics (gentamicin, 5 mg/kg, intramuscular injection) once daily for 5 days. The body weight, remaining food, and the weight of water were confirmed and recorded for all animals, and the bladder was emptied twice daily by passive bladder massage until reflex micturition was established. At this time, a Sham group was a group that was subjected to only laminectomy without damage.
To be used as a peripheral nerve injury animal model, a lumbar spinal stenosis (LSS) model was prepared (FIG. 1B). Specifically, 260 to 280 g of adult male Sprague-Dawley rats were anesthetized with intraperitoneal injection of chloral hydrate (500 mg/kg), the back region was shaved, and then the spinal plate was exposed at L4 to S2 levels. After removing the ligamentous section between L4 and L5, a trapezoidal silicone block (1.00 mm long × 1.3 to 1.2 mm wide × 1.0 mm high) was inserted into the epidural space below the L5 and L6 spinal plates without damaging the dural sac. At this time, a Sham group was a group that was subjected to only posterior […] on the animal without inserting a silicone block.
To be used as a peripheral nerve injury animal model, a sciatic nerve injury (SNI) model was prepared (FIG. 1C). Specifically, 200 to 220 g of male adult Sprague-Dawley rats were anesthetized by intraperitoneal injection of chloral hydrate (500 mg/kg), and then three terminal branches (tibial, common peroneal, and sural nerves) of the right sciatic nerve were approached, and the tibia nerve and the peroneal nerve were tightly ligated with 4-0 silk, and neurectomy was performed at a distal 3 mm position of the ligation site. At this time, a Sham group was a group that exposed only the sciatic nerve without damage.
In order to confirm a neuropathic pain inhibitory effect of YJ102 (Chemical Formula 1), a compound of the present disclosure, in the three nerve injury animal models prepared in Example 1 above, rats having pain on week 3 (SNI model) or week 4 (SCI model and LSS model) after surgery were selected and administered orally (p.o.) at 10 mg/kg or 20 mg/kg of YJ102 dissolved in a solution of DMSO, methyl pyrrolidinone, and water (1 : 1.5 : 1), or intraperitoneally injected (i.p. injection) at 1, 2, or 5 mg/kg of YJ102. In a positive control group, gabapentin or pregabalin dissolved in saline was intraperitoneally injected at a concentration of 5 mg/kg, and in a Vehicle group, the same amount of a solution of DMSO, methyl pyrrolidinone, and water was administered. Thereafter, in order to measure mechanical allodynia, the rats were located at the bottom of a transparent plastic box (10 cm × 10 cm) on top of a wire mesh (3 mm × 3 mm) and subjected to an adaptation period for approximately 20 minutes. Von-Frey filaments were applied to the soles of both paws and used with stiff nylon von-Frey monofilament series ([…], Stoelting, WoodDale, IL, USA; equivalent in grams to 0.4, 0.6, 1.0, 2.0, 4.0, 6.0, 8.0 and 15.0) with logarithmic increases in tactile (mechanical) sensitivity. […]

In assay [2] the test system is proNGF. The assay can be described thus: NGF/proNGF expression in bladder after SCI (RT-PCR, Western blot). It is filed as in vivo, Sprague-Dawley rats. The following applies: bladder tissue after spinal cord injury. As for the experimental part:
In order to determine whether YJ102 affected the production of proNGF as a ligand of p75, the expression of proNGF in the bladder was confirmed by RT-PCR, Western blot analysis, and immunofluorescence staining. In addition, for further verification, a macrophage cell line Raw 264.7 (Korea Cell Line Bank, Seoul, Korea) was stimulated with 1 µg/ml of LPS, and the effect of YJ102 on the production of proNGF was investigated. At this time, YJ102 was dissolved in DMSO and treated 30 minutes before LPS treatment.
For orientation: In western blotting, separated proteins are transferred to a membrane and probed.

Assay [3] has as its system IMQ psoriasis animal model. The assay can be described thus: Spleen hypertrophy in IMQ psoriasis animal model. It counts as in vivo, C57BL/6 mouse. The conditions noted are these: Day 6, vs Vehicle group. On the procedure:
Psoriasis caused by excessive production of skin cells was a chronic skin disease associated with various factors, including autoimmune diseases, and its symptoms included red and thickened skin and abnormally occurring scaling. […] Specifically, the back region of a C57BL/6 mouse (male, 18 to 20 g, 8 weeks) (Daehan Biolink, Eumseong, Korea) was shaved to remove hair, and then applied with IMQ cream (83 mg/day) (5%) for consecutive 5 days from Day 0 to Day 4 to induce psoriasis-like skin inflammation, and a normal control mouse (Sham) was applied with Vaseline cream (FIG. 16A).
The spleen hypertrophy occurred in mice induced with psoriasis, the longitudinal diameter of the spleen in psoriasis patients was increased compared to that of non-psoriasis patients, and a correlation between the disease duration and the spleen diameter was reported. Therefore, on Day 6, the spleen of the mouse in each group was extracted and weighed to determine the degree of spleen hypertrophy.

Assay [4] relates to mTOR pathway. Kind of assay: Signaling pathway analysis in SNI model (Western blot): mTOR. It is filed as in vivo, Sprague-Dawley rats. The conditions noted are these: 4 weeks after nerve injury. On the procedure: To determine through which signaling pathway YJ102 inhibited a neuroinflammatory response, there was analyzed increased expression and activation of histone demethylase JMJD3 and expression changes of factors associated with JAK/STAT3 pathway, mTOR pathway, and TRPM7-mediated pathway, which were known as important regulatory mechanisms and epigenetic regulators mediating the neuroinflammatory response, in the tissues of the SNI animal model 4 weeks after nerve injury.

Setting [5] is: all three models (SCI, LSS, SNI), orally 10 mg/kg or 20 mg/kg.

Turning to `CCc1ccc(N(C(=O)COC)c2nc3cc(Cl)ccc3o2)cc1` [YJ102], in assay [1] (setting [5]), the “duration of the analgesic effect” value is no less than 4 h and the “time from which the mechanical allodynia threshold was increased after administration” value was 30 min. In addition, the “analgesic effect compared with gabapentin or pregabalin” value in assay [1] (intraperitoneal, same concentration as gabapentin or pregabalin, SCI, LSS, SNI models) is given as “more than twice as high”. In addition, the “duration of the analgesic effect compared with existing drugs” value in assay [1] (intraperitoneal, versus gabapentin and pregabalin, SCI, LSS, SNI models) is recorded as “more than three times longer”. In assay [2] (RT-PCR), the “NGF mRNA expression” value is “significantly inhibited”. Besides, the proNGF production entry in assay [2] (Western blot) was “significantly inhibited”. In assay [3], the “size of the spleen” value is recorded as “significantly reduced” and the “weight of the spleen” value was “significantly reduced”. In addition, in assay [4], the “activity of S6” value is “inhibiting” and the “activity of p70S6kinase” value is given as “inhibiting”.
